Test results taken from PubChem BioAssay AID1259407 (Chemical Carcinogenesis Research Information System (CCRIS), 2018).
Activity calls are given as the source filed them. No rule for the calls is given here.

Tested on: CCRIS mutagenicity, Ames/micronucleus/aberration tests
Experiment: CCRIS mutagenicity studies
[1] = Test System: AMES SALMONELLA TYPHIMURIUM, Strain/Indicator: TA98, Metabolic Activation: NONE, Method: PREINCUBATION
[2] = Test System: AMES SALMONELLA TYPHIMURIUM, Strain/Indicator: TA100, Metabolic Activation: NONE, Method: PREINCUBATION
[3] = Test System: AMES SALMONELLA TYPHIMURIUM, Strain/Indicator: TA1535, Metabolic Activation: NONE, Method: PREINCUBATION
[4] = Test System: AMES SALMONELLA TYPHIMURIUM, Strain/Indicator: TA98, Metabolic Activation: NONE, Method: STANDARD PLATE
[5] = Test System: AMES SALMONELLA TYPHIMURIUM, Strain/Indicator: TA98, Metabolic Activation: RAT, LIVER, S-9, AROCLOR 1254, Method: STANDARD PLATE
[6] = Test System: AMES SALMONELLA TYPHIMURIUM, Strain/Indicator: TA100, Metabolic Activation: NONE, Method: STANDARD PLATE
[7] = Test System: AMES SALMONELLA TYPHIMURIUM, Strain/Indicator: TA100, Metabolic Activation: RAT, LIVER, S-9, AROCLOR 1254, Method: STANDARD PLATE

Measured: mutagenic call

O=Cc1cccc(Cl)c1
inactive: [1] inactive; negative | Test System: AMES SALMONELLA TYPHIMURIUM, Strain/Indicator: TA98, Metabolic Activation: RAT LIVER S-9, PCB, Method: PREINCUBATION inactive; negative | [2] inactive; negative | Test System: AMES SALMONELLA TYPHIMURIUM, Strain/Indicator: TA100, Metabolic Activation: RAT LIVER S-9, PCB, Method: PREINCUBATION inactive; negative | Test System: AMES SALMONELLA TYPHIMURIUM, Strain/Indicator: TA104, Metabolic Activation: NONE, Method: PREINCUBATION inactive; negative | Test System: AMES SALMONELLA TYPHIMURIUM, Strain/Indicator: TA104, Metabolic Activation: RAT LIVER S-9, PCB, Method: PREINCUBATION inactive; negative | Test System: E.COLI, Strain/Indicator: WP2 UVRA, Metabolic Activation: NONE, Method: PREINCUBATION inactive; negative | Test System: E.COLI, Strain/Indicator: WP2 UVRA, Metabolic Activation: RAT LIVER S-9, PCB, Method: PREINCUBATION inactive; negative

C/C=C1\C[C@@H](C)[C@](C)(O)C(=O)OC[C@H]2CCN3CC[C@@H](OC1=O)C23 (some centres not stated)
inactive: Test System: UDS RAT HEPATOCYTES, Strain/Indicator: THY INCORP, Metabolic Activation: NONE, Method: AUTORADIOGRAPHY inactive; negative

[CH3][Pb]([CH3])([CH3])[CH3]
inactive: Test System: AMES SALMONELLA TYPHIMURIUM, Strain/Indicator: TA98, Metabolic Activation: HAMSTER, LIVER, S-9, AROCLOR 1254, Method: PREINCUBATION inactive; negative | [1] inactive; negative | Test System: AMES SALMONELLA TYPHIMURIUM, Strain/Indicator: TA98, Metabolic Activation: RAT, LIVER, S-9, AROCLOR 1254, Method: PREINCUBATION inactive; negative | Test System: AMES SALMONELLA TYPHIMURIUM, Strain/Indicator: TA100, Metabolic Activation: HAMSTER, LIVER, S-9, AROCLOR 1254, Method: PREINCUBATION inactive; negative | [2] inactive; negative | Test System: AMES SALMONELLA TYPHIMURIUM, Strain/Indicator: TA100, Metabolic Activation: RAT, LIVER, S-9, AROCLOR 1254, Method: PREINCUBATION inactive; negative | Test System: AMES SALMONELLA TYPHIMURIUM, Strain/Indicator: TA1535, Metabolic Activation: HAMSTER, LIVER, S-9, AROCLOR 1254, Method: PREINCUBATION inactive; negative | [3] inactive; negative | Test System: AMES SALMONELLA TYPHIMURIUM, Strain/Indicator: TA1535, Metabolic Activation: RAT, LIVER, S-9, AROCLOR 1254, Method: PREINCUBATION inactive; negative | Test System: AMES SALMONELLA TYPHIMURIUM, Strain/Indicator: TA1537, Metabolic Activation: HAMSTER, LIVER, S-9, AROCLOR 1254, Method: PREINCUBATION inactive; negative | Test System: AMES SALMONELLA TYPHIMURIUM, Strain/Indicator: TA1537, Metabolic Activation: NONE, Method: PREINCUBATION inactive; negative | Test System: AMES SALMONELLA TYPHIMURIUM, Strain/Indicator: TA1537, Metabolic Activation: RAT, LIVER, S-9, AROCLOR 1254, Method: PREINCUBATION inactive; negative

C=C(C)C(=O)OCC(CC)(COC(=O)C(=C)C)COC(=O)C(=C)C
active: Test System: AMES SALMONELLA TYPHIMURIUM, Strain/Indicator: TA1535, Metabolic Activation: HAMSTER, LIVER, S-9, AROCLOR 1254 (15-20%), Method: STANDARD PLATE active; positive | Test System: AMES SALMONELLA TYPHIMURIUM, Strain/Indicator: TA1535, Metabolic Activation: HAMSTER, LIVER, S-9, AROCLOR 1254, Method: STANDARD PLATE active; positive
inactive: Test System: AMES SALMONELLA TYPHIMURIUM, Strain/Indicator: TA98, Metabolic Activation: HAMSTER, LIVER, S-9, AROCLOR 1254, Method: STANDARD PLATE inactive; negative | [4] inactive; negative | [5] inactive; negative | Test System: AMES SALMONELLA TYPHIMURIUM, Strain/Indicator: TA100, Metabolic Activation: HAMSTER, LIVER, S-9, AROCLOR 1254, Method: STANDARD PLATE inactive; negative | [6] inactive; negative | [7] inactive; negative | Test System: AMES SALMONELLA TYPHIMURIUM, Strain/Indicator: TA1535, Metabolic Activation: HAMSTER, LIVER, S-9, AROCLOR 1254 (5-10%), Method: STANDARD PLATE inactive; negative | Test System: AMES SALMONELLA TYPHIMURIUM, Strain/Indicator: TA1535, Metabolic Activation: NONE, Method: STANDARD PLATE inactive; negative | Test System: AMES SALMONELLA TYPHIMURIUM, Strain/Indicator: TA1535, Metabolic Activation: RAT, LIVER, S-9, AROCLOR 1254, Method: STANDARD PLATE inactive; negative | Test System: AMES SALMONELLA TYPHIMURIUM, Strain/Indicator: TA1537, Metabolic Activation: HAMSTER, LIVER, S-9, AROCLOR 1254, Method: STANDARD PLATE inactive; negative | Test System: AMES SALMONELLA TYPHIMURIUM, Strain/Indicator: TA1537, Metabolic Activation: NONE, Method: STANDARD PLATE inactive; negative | Test System: AMES SALMONELLA TYPHIMURIUM, Strain/Indicator: TA1537, Metabolic Activation: RAT, LIVER, S-9, AROCLOR 1254, Method: STANDARD PLATE inactive; negative

Nc1ncnc2c1ncn2Cc1ccccc1
inactive: Test System: AMES SALMONELLA TYPHIMURIUM, Strain/Indicator: TA97, Metabolic Activation: NONE, Method: STANDARD PLATE inactive; negative | Test System: AMES SALMONELLA TYPHIMURIUM, Strain/Indicator: TA97, Metabolic Activation: RAT, LIVER, S-9, AROCLOR 1254, Method: STANDARD PLATE inactive; negative | [4] inactive; negative | [6] inactive; negative | [7] inactive; negative
active: [5] active; positive

CN(C)c1cccc(O)c1
active: Test System: AMES SALMONELLA TYPHIMURIUM, Strain/Indicator: TA97, Metabolic Activation: HAMSTER, LIVER, S-9, AROCLOR 1254 (10%), Method: PREINCUBATION active; positive | Test System: AMES SALMONELLA TYPHIMURIUM, Strain/Indicator: TA97, Metabolic Activation: RAT, LIVER, S-9, AROCLOR 1254 (10%), Method: PREINCUBATION active; positive | Test System: AMES SALMONELLA TYPHIMURIUM, Strain/Indicator: TA98, Metabolic Activation: HAMSTER, LIVER, S-9, AROCLOR 1254 (10%), Method: PREINCUBATION active; positive | Test System: AMES SALMONELLA TYPHIMURIUM, Strain/Indicator: TA98, Metabolic Activation: RAT, LIVER, S-9, AROCLOR 1254 (10%), Method: PREINCUBATION active; positive | Test System: AMES SALMONELLA TYPHIMURIUM, Strain/Indicator: TA100, Metabolic Activation: HAMSTER, LIVER, S-9, AROCLOR 1254 (10%), Method: PREINCUBATION active; positive | Test System: AMES SALMONELLA TYPHIMURIUM, Strain/Indicator: TA100, Metabolic Activation: RAT, LIVER, S-9, AROCLOR 1254 (10%), Method: PREINCUBATION active; positive
inactive: Test System: AMES SALMONELLA TYPHIMURIUM, Strain/Indicator: TA97, Metabolic Activation: NONE, Method: PREINCUBATION inactive; negative | [1] inactive; negative | [2] inactive; negative | Test System: AMES SALMONELLA TYPHIMURIUM, Strain/Indicator: TA1535, Metabolic Activation: HAMSTER, LIVER, S-9, AROCLOR 1254 (10%), Method: PREINCUBATION inactive; negative | [3] inactive; negative | Test System: AMES SALMONELLA TYPHIMURIUM, Strain/Indicator: TA1535, Metabolic Activation: RAT, LIVER, S-9, AROCLOR 1254 (10%), Method: PREINCUBATION inactive; negative

COP(=S)(OC)Oc1ccc(SC)c(C)c1
inactive: End Point: In vitro chromosomal aberration, Test System: Chinese hamster ovary (CHO) cells, Metabolic Activation: None inactive; negative | End Point: In vitro chromosomal aberration, Test System: Chinese hamster ovary (CHO) cells, Metabolic Activation: Rat, Liver, S-9 inactive; negative
active: End Point: IN VITRO CHROMOSOMAL ABERRATIONS, Test System: HUMAN PERIPHERAL LYMPHOCYTES, Metabolic Activation: NONE active; positive (structural changes) | Test System: UDS Rat hepatocytes, Strain/Indicator: Thymidine incorporation, Metabolic Activation: None, Method: Autoradiography active; positive
